According to PubChem BioAssay AID248 (DTP/NCI, 2004):
“And” between values parts separate entries of the source, which are not always exact repeats. Equal entries are not always repeated. Inconclusive results and toxic doses are left out.

Tested on: L1210 leukemia ip in BDF1 mice, survival T/C
Assay: NCI In Vivo Anticancer Drug Screen. Data for tumor model L1210 Leukemia (intraperitoneal) in B6D2F1 (BDF1) mice
Details: endpoint: mean survival time, higher = longer survival
In short: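 Value reflects the ratio of survival in compound-treated mice to survival in vehicle-treated controls, with both groups carrying the same transplanted tumor.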

[1] = dose: 12.5 mg/kg/injection, schedule: Q01DX009 (ip), vehicle: Klucel (hydroxypropylcellulose) (HPC)
[2] = dose: 12.5 mg/kg/injection, schedule: Q04DX003 (ip), vehicle: Klucel (hydroxypropylcellulose) (HPC)
[3] = dose: 25.0 mg/kg/injection, schedule: Q01DX009 (ip), vehicle: Klucel (hydroxypropylcellulose) (HPC)
[4] = dose: 25.0 mg/kg/injection, schedule: Q04DX003 (ip), vehicle: Klucel (hydroxypropylcellulose) (HPC)
[5] = dose: 50.0 mg/kg/injection, schedule: Q01DX009 (ip), vehicle: Klucel (hydroxypropylcellulose) (HPC)
[6] = dose: 50.0 mg/kg/injection, schedule: Q04DX003 (ip), vehicle: Klucel (hydroxypropylcellulose) (HPC)
[7] = dose: 100.0 mg/kg/injection, schedule: Q01DX001 (ip), vehicle: Klucel (hydroxypropylcellulose) (HPC)
[8] = dose: 100.0 mg/kg/injection, schedule: Q01DX009 (ip), vehicle: saline
[9] = dose: 100.0 mg/kg/injection, schedule: Q04DX003 (ip), vehicle: saline
[10] = dose: 75.0 mg/kg/injection, schedule: Q01DX009 (ip), vehicle: Klucel (hydroxypropylcellulose) (HPC)
[11] = dose: 100.0 mg/kg/injection, schedule: Q01DX009 (ip), vehicle: saline with Tween-80
[12] = dose: 100.0 mg/kg/injection, schedule: Q04DX003 (ip), vehicle: saline with Tween-80
[13] = dose: 200.0 mg/kg/injection, schedule: Q01DX009 (ip), vehicle: saline with Tween-80
[14] = dose: 200.0 mg/kg/injection, schedule: Q04DX003 (ip), vehicle: saline with Tween-80
[15] = dose: 400.0 mg/kg/injection, schedule: Q04DX003 (ip), vehicle: saline with Tween-80
[16] = dose: 100.0 mg/kg/injection, schedule: Q01DX001 (ip), vehicle: saline with Tween-80
[17] = dose: 200.0 mg/kg/injection, schedule: Q01DX001 (ip), vehicle: saline with Tween-80
[18] = dose: 400.0 mg/kg/injection, schedule: Q01DX001 (ip), vehicle: saline with Tween-80

Cc1cc(C)nc(NC(N)=NCCc2ccccc2)n1
T/C [1]: 101 % of control | T/C [2]: 102 % of control | T/C [3]: 101 % of control | T/C [4]: 100 % of control | T/C [5]: 101 % of control | T/C [6]: 102 % of control

O=S1(=O)CCCC1C(Cl)c1ccccc1 (configuration not stated)
T/C (dose: 50.0 mg/kg/injection, schedule: Q01DX001 (ip), vehicle: Klucel (hydroxypropylcellulose) (HPC)): 92 % of control | T/C [7]: 97 % of control

CNC(=O)Oc1c([N+](=O)[O-])c([N+](=O)[O-])cc2ccccc12
T/C (dose: 75.0 mg/kg/injection, schedule: Q01DX001 (ip), vehicle: other): 100 % of control

CCN1Cc2ccc(O)cc2C1
T/C (dose: 25.0 mg/kg/injection, schedule: Q01DX009 (ip), vehicle: saline): 103 % of control | T/C (dose: 25.0 mg/kg/injection, schedule: Q04DX003 (ip), vehicle: saline): 107 % of control | T/C (dose: 50.0 mg/kg/injection, schedule: Q01DX009 (ip), vehicle: saline): 95 % of control | T/C (dose: 50.0 mg/kg/injection, schedule: Q04DX003 (ip), vehicle: saline): 107 % of control | T/C [8]: 96 % of control and 97 % of control | T/C [9]: 100 % of control and 102 % of control

ClCCCNCCCCl
T/C (dose: 75.0 mg/kg/injection, schedule: Q01DX001 (ip), vehicle: saline): 101 % of control | T/C (dose: 150.0 mg/kg/injection, schedule: Q01DX001 (ip), vehicle: saline): 97 % of control

Nc1cc2ccc(O)cc2c2ccccc12
T/C (dose: 25.6 mg/kg/injection, schedule: Q04DX002 (ip), vehicle: saline with Tween-80): 109 % of control | T/C (dose: 64.0 mg/kg/injection, schedule: Q04DX002 (ip), vehicle: saline with Tween-80): 91 % of control | T/C (dose: 160.0 mg/kg/injection, schedule: Q04DX002 (ip), vehicle: saline with Tween-80): 94 % of control | T/C (dose: 400.0 mg/kg/injection, schedule: Q04DX002 (ip), vehicle: saline with Tween-80): 102 % of control

C1CCC2[N-]CC3CCCCC3[N-]CC3CCCCC3[N-]CC3CCCCC3[N-]CC2C1.[Cl][Fe]([Cl])([Cl])[Cl].[Fe+6] (configuration not stated)
T/C (dose: 12.5 mg/kg/injection, schedule: Q04DX002 (ip), vehicle: Klucel (hydroxypropylcellulose) (HPC)): 102 % of control | T/C (dose: 25.0 mg/kg/injection, schedule: Q04DX002 (ip), vehicle: Klucel (hydroxypropylcellulose) (HPC)): 102 % of control | T/C (dose: 50.0 mg/kg/injection, schedule: Q04DX002 (ip), vehicle: Klucel (hydroxypropylcellulose) (HPC)): 94 % of control

O=[N+]([O-])c1ccc(Oc2ccccc2)c(Cl)c1
T/C [10]: 101 % of control | T/C (dose: 75.0 mg/kg/injection, schedule: Q04DX003 (ip), vehicle: Klucel (hydroxypropylcellulose) (HPC)): 96 % of control | T/C (dose: 150.0 mg/kg/injection, schedule: Q01DX009 (ip), vehicle: Klucel (hydroxypropylcellulose) (HPC)): 108 % of control | T/C (dose: 150.0 mg/kg/injection, schedule: Q04DX003 (ip), vehicle: Klucel (hydroxypropylcellulose) (HPC)): 110 % of control | T/C (dose: 300.0 mg/kg/injection, schedule: Q01DX009 (ip), vehicle: Klucel (hydroxypropylcellulose) (HPC)): 108 % of control | T/C (dose: 300.0 mg/kg/injection, schedule: Q04DX003 (ip), vehicle: Klucel (hydroxypropylcellulose) (HPC)): 93 % of control

Cc1cc(C)c(-c2c(O)c(Br)c(-c3c(C)cc(C)c(Br)c3C)c(O)c2Br)c(C)c1Br
T/C [1]: 100 % of control | T/C [2]: 100 % of control | T/C [3]: 103 % of control | T/C [4]: 97 % of control | T/C [5]: 94 % of control | T/C [6]: 102 % of control | T/C [10]: 120 % of control

CCOC(=O)c1cc(C)nnc1C(=O)OCC
T/C [11]: 104 % of control | T/C [8]: 100 % of control | T/C [12]: 97 % of control | T/C [9]: 107 % of control | T/C [13]: 104 % of control | T/C (dose: 200.0 mg/kg/injection, schedule: Q01DX009 (ip), vehicle: saline): 103 % of control | T/C [14]: 106 % of control | T/C (dose: 200.0 mg/kg/injection, schedule: Q04DX003 (ip), vehicle: saline): 112 % of control | T/C (dose: 400.0 mg/kg/injection, schedule: Q01DX009 (ip), vehicle: saline with Tween-80): 103 % of control | T/C (dose: 400.0 mg/kg/injection, schedule: Q01DX009 (ip), vehicle: saline): 101 % of control | T/C [15]: 101 % of control | T/C (dose: 400.0 mg/kg/injection, schedule: Q04DX003 (ip), vehicle: saline): 98 % of control

CC1(ON(c2cc(Cl)cc(Cl)c2)C2(C)c3ccccc3-c3ccccc32)c2ccccc2-c2ccccc21
T/C [12]: 88 % of control | T/C [14]: 97 % of control

Cc1cc(NC(=O)c2ccccc2)c(Cl)cc1N
T/C (dose: 50.0 mg/kg/injection, schedule: Q01DX009 (ip), vehicle: saline with Tween-80): 105 % of control | T/C (dose: 50.0 mg/kg/injection, schedule: Q04DX003 (ip), vehicle: saline with Tween-80): 94 % of control | T/C [11]: 98 % of control | T/C [12]: 98 % of control | T/C [13]: 93 % of control | T/C [14]: 93 % of control

COCCCNCC(=O)N1CCN(C(=O)CNCCCOC)CC1
T/C (dose: 50.0 mg/kg/injection, schedule: Q01DX001 (ip), vehicle: carboxymethylcellulose (CMC)): 92 % of control | T/C (dose: 100.0 mg/kg/injection, schedule: Q01DX001 (ip), vehicle: carboxymethylcellulose (CMC)): 92 % of control | T/C (dose: 200.0 mg/kg/injection, schedule: Q01DX001 (ip), vehicle: carboxymethylcellulose (CMC)): 92 % of control | T/C (dose: 400.0 mg/kg/injection, schedule: Q01DX001 (ip), vehicle: carboxymethylcellulose (CMC)): 95 % of control

CCNC(=O)NC(C(=O)OCC)C(=O)OCC
T/C [7]: 107 % of control | T/C (dose: 200.0 mg/kg/injection, schedule: Q01DX001 (ip), vehicle: Klucel (hydroxypropylcellulose) (HPC)): 98 % of control | T/C (dose: 400.0 mg/kg/injection, schedule: Q01DX001 (ip), vehicle: Klucel (hydroxypropylcellulose) (HPC)): 90 % of control

CN(N)C(=O)Nc1ccccc1[N+](=O)[O-]
T/C (dose: 75.0 mg/kg/injection, schedule: Q01DX001 (ip), vehicle: carboxymethylcellulose (CMC)): 96 % of control | T/C (dose: 150.0 mg/kg/injection, schedule: Q01DX001 (ip), vehicle: carboxymethylcellulose (CMC)): 102 % of control

Nc1ncc(CCCCc2ccccc2)c(=O)[nH]1
T/C [16]: 96 % of control | T/C [17]: 93 % of control | T/C [18]: 98 % of control

CCCN(C)/N=N/c1[nH]ncc1C(N)=O
T/C (dose: 66.0 mg/kg/injection, schedule: Q01DX009 (ip), vehicle: saline with Tween-80): 178 % of control | T/C [16]: 113 % of control | T/C [11]: 188 % of control | T/C [17]: 115 % of control | T/C [13]: 120 % of control | T/C [14]: 116 % of control | T/C [18]: 109 % of control | T/C [15]: 94 % of control

CCOC(=O)C1=C(C)NC(=O)NC1c1ccc(N(CCCl)CCCl)cc1 (configuration not stated)
T/C (dose: 100.0 mg/kg/injection, schedule: Q01DX009 (ip), vehicle: Klucel (hydroxypropylcellulose) (HPC)): 93 % of control | T/C (dose: 100.0 mg/kg/injection, schedule: Q04DX003 (ip), vehicle: Klucel (hydroxypropylcellulose) (HPC)): 97 % of control | T/C (dose: 200.0 mg/kg/injection, schedule: Q01DX009 (ip), vehicle: Klucel (hydroxypropylcellulose) (HPC)): 112 % of control | T/C (dose: 200.0 mg/kg/injection, schedule: Q04DX003 (ip), vehicle: Klucel (hydroxypropylcellulose) (HPC)): 90 % of control | T/C (dose: 400.0 mg/kg/injection, schedule: Q01DX009 (ip), vehicle: Klucel (hydroxypropylcellulose) (HPC)): 104 % of control | T/C (dose: 400.0 mg/kg/injection, schedule: Q04DX003 (ip), vehicle: Klucel (hydroxypropylcellulose) (HPC)): 101 % of control

CCC(=O)C(c1ccccc1)(c1ccccc1)C(C)CN(C)C (configuration not stated)
T/C (dose: 5.0 mg/kg/injection, schedule: Q01DX001 (ip), vehicle: saline): 102 % of control | T/C (dose: 10.0 mg/kg/injection, schedule: Q01DX001 (ip), vehicle: saline): 104 % of control | T/C (dose: 20.0 mg/kg/injection, schedule: Q01DX001 (ip), vehicle: saline): 96 % of control | T/C (dose: 40.0 mg/kg/injection, schedule: Q01DX001 (ip), vehicle: saline): 87 % of control
